Reference: the supplement of paper PMC8612539
Converted amounts (≈) assume the structure as drawn.

System: Escherichia coli
Assay: minimum inhibitory concentration (MIC)
Description: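 Broth microdilution MIC (Sensititre BOPO7F bovine plate, CLSI methods) of 19 antimicrobials against field isolates of P. multocida, M. haemolytica, H. somni (deep nasopharyngeal swabs) and E. coli, Enterococcus spp. (rectal swabs) from weaned dairy heifers. Incubation 16-24 h at 35 C. MIC is the lowest concentration preventing visible growth. Values with <= or > lie at the tested range limits. Trimethoprim-sulfamethoxazole is given as the trimethoprim component of a 1:19 mixture.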

CC1(C)S[C@@H]2[C@H](NC(=O)[C@H](N)c3ccccc3)C(=O)N2[C@H]1C(=O)O [Ampicillin]
Conditions | minimum inhibitory concentration [µg/mL]
isolate (source animal id): 8 | 4 (≈ 11.4 µM)
isolate (source animal id): 9 | > 16
isolate (source animal id): 10 | 2 (≈ 5.72 µM)
isolate (source animal id): 11 | 4 (≈ 11.4 µM)
isolate (source animal id): 12 | > 16
isolate (source animal id): 13 | > 16
isolate (source animal id): 14 | > 16
isolate (source animal id): 15 | 2 (≈ 5.72 µM)
isolate (source animal id): 16 | 4 (≈ 11.4 µM)
isolate (source animal id): 98 | 4 (≈ 11.4 µM)
isolate (source animal id): 99 | 4 (≈ 11.4 µM)
isolate (source animal id): 100 | 2 (≈ 5.72 µM)
isolate (source animal id): 101 | 1 (≈ 2.86 µM)
isolate (source animal id): 102 | 2 (≈ 5.72 µM)
isolate (source animal id): 103 | > 16
isolate (source animal id): 104 | 4 (≈ 11.4 µM)
isolate (source animal id): 105 | 4 (≈ 11.4 µM)
isolate (source animal id): 106 | 2 (≈ 5.72 µM)
isolate (source animal id): 107 | 2 (≈ 5.72 µM)
isolate (source animal id): 108 | 4 (≈ 11.4 µM)
isolate (source animal id): 109 | 2 (≈ 5.72 µM)
isolate (source animal id): 110 | 4 (≈ 11.4 µM)
isolate (source animal id): 111 | 2 (≈ 5.72 µM)
isolate (source animal id): 112 | 2 (≈ 5.72 µM)
isolate (source animal id): 113 | 4 (≈ 11.4 µM)
isolate (source animal id): 114 | 4 (≈ 11.4 µM)
isolate (source animal id): 115 | > 16
isolate (source animal id): 116 | 2 (≈ 5.72 µM)
isolate (source animal id): 117 | 2 (≈ 5.72 µM)
isolate (source animal id): 118 | 4 (≈ 11.4 µM)
isolate (source animal id): 119 | 8 (≈ 22.9 µM)
isolate (source animal id): 120 | > 16
isolate (source animal id): 121 | 2 (≈ 5.72 µM)
isolate (source animal id): 122 | 1 (≈ 2.86 µM)
isolate (source animal id): 123 | 2 (≈ 5.72 µM)
isolate (source animal id): 124 | 4 (≈ 11.4 µM)
isolate (source animal id): 125 | 2 (≈ 5.72 µM)
isolate (source animal id): 126 | 8 (≈ 22.9 µM)
isolate (source animal id): 127 | 2 (≈ 5.72 µM)
isolate (source animal id): 128 | > 16
isolate (source animal id): 129 | 4 (≈ 11.4 µM)
isolate (source animal id): 130 | 4 (≈ 11.4 µM)
isolate (source animal id): 131 | 2 (≈ 5.72 µM)
isolate (source animal id): 132 | > 16
isolate (source animal id): 133 | 4 (≈ 11.4 µM)
isolate (source animal id): 134 | 4 (≈ 11.4 µM)
isolate (source animal id): 135 | 2 (≈ 5.72 µM)
isolate (source animal id): 136 | 4 (≈ 11.4 µM)
isolate (source animal id): 137 | 4 (≈ 11.4 µM)
isolate (source animal id): 138 | 4 (≈ 11.4 µM)
isolate (source animal id): 139 | 1 (≈ 2.86 µM)
isolate (source animal id): 140 | 4 (≈ 11.4 µM)
isolate (source animal id): 141 | 4 (≈ 11.4 µM)
isolate (source animal id): 142 | 4 (≈ 11.4 µM)
isolate (source animal id): 143 | > 16
isolate (source animal id): 144 | > 16
isolate (source animal id): 145 | 8 (≈ 22.9 µM)
isolate (source animal id): 146 | 2 (≈ 5.72 µM)
isolate (source animal id): 147 | > 16
isolate (source animal id): 148 | 2 (≈ 5.72 µM)
isolate (source animal id): 149 | 2 (≈ 5.72 µM)
isolate (source animal id): 150 | 4 (≈ 11.4 µM)
isolate (source animal id): 151 | 1 (≈ 2.86 µM)
isolate (source animal id): 152 | 2 (≈ 5.72 µM)
isolate (source animal id): 153 | > 16
isolate (source animal id): 154 | 4 (≈ 11.4 µM)
isolate (source animal id): 155 | 2 (≈ 5.72 µM)
isolate (source animal id): 156 | > 16
isolate (source animal id): 157 | 4 (≈ 11.4 µM)
isolate (source animal id): 158 | 4 (≈ 11.4 µM)
isolate (source animal id): 159 | 2 (≈ 5.72 µM)
isolate (source animal id): 160 | 4 (≈ 11.4 µM)
isolate (source animal id): 161 | 2 (≈ 5.72 µM)
isolate (source animal id): 162 | > 16
isolate (source animal id): 163 | 4 (≈ 11.4 µM)
isolate (source animal id): 164 | 4 (≈ 11.4 µM)
isolate (source animal id): 165 | 2 (≈ 5.72 µM)
isolate (source animal id): 166 | 2 (≈ 5.72 µM)
isolate (source animal id): 167 | 4 (≈ 11.4 µM)
isolate (source animal id): 168 | 2 (≈ 5.72 µM)
isolate (source animal id): 169 | 4 (≈ 11.4 µM)
isolate (source animal id): 170 | 4 (≈ 11.4 µM)
isolate (source animal id): 171 | 4 (≈ 11.4 µM)
isolate (source animal id): 172 | 2 (≈ 5.72 µM)
isolate (source animal id): 173 | > 16
isolate (source animal id): 174 | > 16
isolate (source animal id): 175 | 4 (≈ 11.4 µM)
isolate (source animal id): 176 | > 16
isolate (source animal id): 177 | > 16
isolate (source animal id): 178 | 4 (≈ 11.4 µM)
isolate (source animal id): 179 | 4 (≈ 11.4 µM)
isolate (source animal id): 180 | 4 (≈ 11.4 µM)
isolate (source animal id): 181 | 2 (≈ 5.72 µM)
isolate (source animal id): 182 | 2 (≈ 5.72 µM)
isolate (source animal id): 183 | 4 (≈ 11.4 µM)
isolate (source animal id): 184 | 4 (≈ 11.4 µM)
isolate (source animal id): 185 | 4 (≈ 11.4 µM)
isolate (source animal id): 186 | 4 (≈ 11.4 µM)
isolate (source animal id): 187 | > 16
isolate (source animal id): 188 | > 16
